Source: ChEMBL document CHEMBL1201862, “PubChem BioAssay data set” (2004)
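Each compound was tested at five concentrations against cells in 96-well plates for 48 hours. Here, GI50 denotes the concentration required for 50% inhibition of growth.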 The source made the active and inactive calls. Rule as the data show it: active = GI50 up to about 1.1 µM and inactive = higher.

Legend:
Assay in all cases: inhibition of tumour cell growth, NCI panel, 48 h
K562 = tested on: K562
NCI-H460 = tested on: NCI-H460
OVCAR-8 = tested on: OVCAR-8
SK-MEL-5 = tested on: SK-MEL-5
Hs-578T = tested on: Hs-578T
MOLT-4 = tested on: MOLT-4
786-0 = tested on: 786-0
LOX IMVI = tested on: LOX IMVI
NCI-H522 = tested on: NCI-H522
DU-145 = tested on: DU-145
HCT-15 = tested on: HCT-15
OVCAR-5 = tested on: OVCAR-5
IGROV-1 = tested on: IGROV-1
CAKI-1 = tested on: CAKI-1
T47D = tested on: T47D
SW-620 = tested on: SW-620
SNB-75 = tested on: SNB-75
UACC-257 = tested on: UACC-257
RPMI-8226 = tested on: RPMI-8226
SK-MEL-2 = tested on: SK-MEL-2

| SMILES | GI50 (K562) | GI50 (NCI-H460) | GI50 (OVCAR-8) | GI50 (SK-MEL-5) | GI50 (Hs-578T) | GI50 (MOLT-4) | GI50 (786-0) | GI50 (LOX IMVI) | GI50 (NCI-H522) | GI50 (DU-145) | GI50 (HCT-15) | GI50 (OVCAR-5) | GI50 (IGROV-1) | GI50 (CAKI-1) | GI50 (T47D) | GI50 (SW-620) | GI50 (SNB-75) | GI50 (UACC-257) | GI50 (RPMI-8226) | GI50 (SK-MEL-2) |
| --- | --- | --- | --- | --- | --- | --- | --- | --- | --- | --- | --- | --- | --- | --- | --- | --- | --- | --- | --- | --- |
| O=C(O)C12C3C4(C(=O)O)C1C1(C(=O)O)C2C3(C(=O)O)C41 (stereo not given) | < 0.01 µM (active) | > 100 µM (inactive) | > 100 µM (inactive) | > 100 µM (inactive) | > 100 µM (inactive) | > 100 µM (inactive) | > 100 µM (inactive) | > 100 µM (inactive) | > 100 µM (inactive) | > 100 µM (inactive) | > 100 µM | > 100 µM (inactive) | > 100 µM (inactive) | > 100 µM (inactive) | > 100 µM (inactive) | > 100 µM (inactive) | > 100 µM (inactive) | > 100 µM (inactive) | > 100 µM (inactive) | > 100 µM (inactive) |
| CCOC(=O)Cc1nn2c(=O)cc(C)nc2s1 | > 100 µM (inactive) | > 100 µM (inactive) | > 100 µM (inactive) | > 100 µM (inactive) | > 100 µM (inactive) | > 100 µM (inactive) | > 100 µM (inactive) | > 100 µM (inactive) | > 100 µM (inactive) | > 100 µM (inactive) | > 100 µM | > 100 µM (inactive) | > 100 µM (inactive) | > 100 µM (inactive) | > 100 µM (inactive) | > 100 µM (inactive) | > 100 µM (inactive) | > 100 µM (inactive) | > 100 µM (inactive) | > 100 µM (inactive) |
| CC1=NN(c2nc(N)nc(C(C#N)C(=O)c3cc4c(cc3Cl)Sc3nccn3S4(=O)=O)n2)C(C)(C)C1 (stereo not given) | 34.9 µM (inactive) | 8.83 µM (inactive) | 20.7 µM (inactive) | 14 µM (inactive) | 32.2 µM (inactive) | 13 µM (inactive) | 13.5 µM (inactive) | 17.7 µM (inactive) | 18.6 µM (inactive) | 16.8 µM (inactive) | 6.44 µM | > 100 µM (inactive) | 20.8 µM (inactive) | 13.5 µM (inactive) | 14.6 µM (inactive) | 20.5 µM (inactive) | 16.1 µM (inactive) | 19.2 µM (inactive) | 14.9 µM (inactive) | 20.2 µM (inactive) |
| CC(=O)c1sc2[n+](c1C)C(=O)/C(=C\c1ccccc1Cl)S2 | 25.5 µM (inactive) | 16.3 µM (inactive) | 24.3 µM (inactive) | 11.3 µM (inactive) | 47.8 µM (inactive) | 22.4 µM (inactive) | 21.9 µM (inactive) | 18 µM (inactive) | 18.2 µM (inactive) | 18.7 µM (inactive) | 14.1 µM | 24.3 µM (inactive) | 18.3 µM (inactive) | 24.5 µM (inactive) | 15.7 µM (inactive) | 17.3 µM (inactive) | 26.8 µM (inactive) | 19.4 µM (inactive) | 17.5 µM (inactive) | 24 µM (inactive) |
| COc1cc([C@@H]2c3cc4c(cc3[C@@H](c3c(O)cc(O)c5c3O[C@H](c3ccc(O)c(O)c3)[C@H](OC(=O)c3cc(O)c(O)c(O)c3)C5)[C@H]3COC(=O)[C@H]23)OCO4)cc(OC)c1OC | 4.78 µM (inactive) | 7.33 µM (inactive) | 7.1 µM (inactive) | 7.38 µM (inactive) | 4.07 µM (inactive) | 7.74 µM (inactive) | 12.6 µM (inactive) | 5.77 µM (inactive) | 3.92 µM (inactive) | 22.7 µM (inactive) | 18.7 µM | 53.3 µM (inactive) | 27 µM (inactive) | 13.8 µM (inactive) | > 100 µM (inactive) | 5.87 µM (inactive) | 3.47 µM (inactive) | 43.1 µM (inactive) | 5 µM (inactive) | 11.7 µM (inactive) |
| COC1=C2CC(C)CC(OC)C(OC(=O)CCCN)C(C)/C=C(\C)C(OC(N)=O)C(OC)/C=C\C=C(/C)C(=O)NC(=CC1=O)C2=O (stereo not given) | 0.54 µM (active) | 15.5 µM (inactive) | 6.97 µM (inactive) | 9.14 µM (inactive) | 11.6 µM (inactive) | 0.815 µM (active) | 3.68 µM (inactive) | 2.64 µM (inactive) | 0.431 µM (active) | 9.23 µM (inactive) | 4.97 µM | 10.2 µM (inactive) | 7.08 µM (inactive) | 10.7 µM (inactive) | 1.09 µM (active) | 0.873 µM (active) | 18.7 µM (inactive) | 5.64 µM (inactive) | 2.29 µM (inactive) | 12.1 µM (inactive) |
| CCN(CC)CCC(=O)Nc1ccc2sc3ccccc3c(=O)c2n1 | 11 µM (inactive) | 23.1 µM (inactive) | 17.5 µM (inactive) | 17.9 µM (inactive) | 20.7 µM (inactive) | 7.78 µM (inactive) | 12.5 µM (inactive) | 14 µM (inactive) | 14.8 µM (inactive) | 23.4 µM (inactive) | 19.3 µM | 18.9 µM (inactive) | 16.5 µM (inactive) | 14 µM (inactive) | 16.1 µM (inactive) | 12 µM (inactive) | 8.55 µM (inactive) | 17.3 µM (inactive) | 12.1 µM (inactive) | 19.8 µM (inactive) |
| COc1cc2oc(=O)cc(C)c2cc1[N+](=O)[O-] | 22.4 µM (inactive) | 46.3 µM (inactive) | 18.8 µM (inactive) | 27.3 µM (inactive) | 28.2 µM (inactive) | 13.7 µM (inactive) | 17.5 µM (inactive) | 12.2 µM (inactive) | 11.6 µM (inactive) | 33.1 µM (inactive) | 17.7 µM | 28.1 µM (inactive) | 38.9 µM (inactive) | 13.8 µM (inactive) | 20.7 µM (inactive) | 23 µM (inactive) | 57.5 µM (inactive) | 16.3 µM (inactive) | 27 µM (inactive) | 12.4 µM (inactive) |
| CN(C)CCNC(=O)c1ccc(NC(=O)c2nc([N+](=O)[O-])cn2C)cc1 | > 100 µM (inactive) | > 100 µM (inactive) | > 100 µM (inactive) | > 100 µM (inactive) | > 100 µM (inactive) | > 100 µM (inactive) | > 100 µM (inactive) | > 100 µM (inactive) | > 100 µM (inactive) | > 100 µM (inactive) | > 100 µM | > 100 µM (inactive) | > 100 µM (inactive) | > 100 µM (inactive) | > 100 µM (inactive) | > 100 µM (inactive) | > 100 µM (inactive) | > 100 µM (inactive) | > 100 µM (inactive) | > 100 µM (inactive) |
| Cc1cc2c(cc1Cl)SC(NNC(=O)c1ccco1)=NS2(=O)=O | > 10 µM (inactive) | > 10 µM (inactive) | > 10 µM (inactive) | > 10 µM (inactive) | > 10 µM (inactive) | > 10 µM (inactive) | > 10 µM (inactive) | > 10 µM (inactive) | > 10 µM (inactive) | > 10 µM (inactive) | > 10 µM | > 10 µM (inactive) | > 10 µM (inactive) | > 10 µM (inactive) | > 10 µM (inactive) | > 10 µM (inactive) | > 10 µM (inactive) | > 10 µM (inactive) | > 10 µM (inactive) | > 10 µM (inactive) |
